Data from PubChem BioAssay AID1919015 (Molecular Pharmacology Branch, DTP, NCI, 2023).
“And” between values parts separate entries of the source, which are not always exact repeats. Equal values may be shown once.

Tested on: OVCAR-5 complex spheroids with HUVEC/MSC, viability, % test/control
Test: Anticancer human tumor OVCAR-5 cell line growth inhibition [AhR];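 further: spheroids exposed to compounds for 7 days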;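 on viability, T/C: 100% = DMSO vehicle control wells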
Settings: for viability, T/C: stronger effect = lower value
In short: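 Complex tumor spheroids co-cultured with HUVEC and human MSC stroma; AhR antagonists tested in combination with standard-of-care and investigational agents. Top concentration at or near clinical Cmax (else 10 microM), half-log dilutions; growth expressed as percent test/control.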

[1] = curve of first compound, second compound 0.1 µM
[2] = curve of first compound, second compound 0.316 µM
[3] = curve of first compound, second compound 1 µM
[4] = curve of first compound, second compound 3.16 µM
[5] = curve of first compound, second compound 10 µM
[6] = second compound 0.1 µM, first compound 0.0316 µM
[7] = second compound 0.1 µM, first compound 0.1 µM
[8] = second compound 0.1 µM, first compound 0.316 µM
[9] = second compound 0.1 µM, first compound 1 µM
[10] = second compound 0.1 µM, first compound 3.16 µM
[11] = second compound 0.1 µM, first compound 10 µM
[12] = second compound 0.316 µM, first compound 0.0316 µM
[13] = second compound 0.316 µM, first compound 0.1 µM
[14] = second compound 0.316 µM, first compound 0.316 µM
[15] = second compound 0.316 µM, first compound 1 µM
[16] = second compound 0.316 µM, first compound 3.16 µM
[17] = second compound 0.316 µM, first compound 10 µM
[18] = second compound 1 µM, first compound 0.0316 µM
[19] = second compound 1 µM, first compound 0.1 µM
[20] = second compound 1 µM, first compound 0.316 µM
[21] = second compound 1 µM, first compound 1 µM
[22] = second compound 1 µM, first compound 3.16 µM
[23] = second compound 1 µM, first compound 10 µM
[24] = second compound 3.16 µM, first compound 0.0316 µM
[25] = second compound 3.16 µM, first compound 0.1 µM
[26] = second compound 3.16 µM, first compound 0.316 µM
[27] = second compound 3.16 µM, first compound 1 µM
[28] = second compound 3.16 µM, first compound 3.16 µM
[29] = second compound 3.16 µM, first compound 10 µM
[30] = second compound 10 µM, first compound 0.0316 µM
[31] = second compound 10 µM, first compound 0.1 µM
[32] = second compound 10 µM, first compound 0.316 µM
[33] = second compound 10 µM, first compound 1 µM
[34] = second compound 10 µM, first compound 3.16 µM
[35] = second compound 10 µM, first compound 10 µM

**Q.** Which results are given for `CC1COCCN1c1cc(C2(S(C)(=N)=O)CC2)nc(-c2ccnc3[nH]ccc23)n1` (stereo not drawn) + Cc1ccccc1N=Nc1ccc(NC(=O)c2ccnn2C)c(C)c1?
**A.** IC50 [1]: 7.02 µM; IC50 [2]: 7.54 µM; IC50 [3]: 9.32 µM; IC50 [4]: 9.73 µM; IC50 [5]: > 10 µM; viability, T/C [6]: 107%; viability, T/C [7]: 108%; viability, T/C [8]: 105%; viability, T/C [9]: 99.7%; viability, T/C [10]: 74.8%; viability, T/C [11]: 38.9%; viability, T/C [12]: 111%; viability, T/C [13]: 111%; viability, T/C [14]: 108%; viability, T/C [15]: 100%; viability, T/C [16]: 78.9%; viability, T/C [17]: 40.6%; viability, T/C [18]: 114%; viability, T/C [19]: 115%; viability, T/C [20]: 115%; viability, T/C [21]: 105%; viability, T/C [22]: 83.3%; viability, T/C [23]: 47.8%; viability, T/C [24]: 111%; viability, T/C [25]: 121%; viability, T/C [26]: 116%; viability, T/C [27]: 106%; viability, T/C [28]: 85.9%; viability, T/C [29]: 49%; viability, T/C [30]: 107%; viability, T/C [31]: 110%; viability, T/C [32]: 111%; viability, T/C [33]: 105%; viability, T/C [34]: 85.4%; viability, T/C [35]: 50.8%

**Q.** Which results are given for `CC(C)c1c(-c2ccccc2)nc2c(C#N)c[nH]n2c1=O` + CC(CO)NC(=O)c1cc(-c2ccc(Cl)cc2)nn(-c2cnn(C)c2)c1=O?
**A.** IC50 [1]: > 10 µM; IC50 [2]: > 10 µM; IC50 [3]: > 10 µM; IC50 [4]: > 10 µM; IC50 [5]: > 10 µM; viability, T/C [6]: 117%; viability, T/C [7]: 111%; viability, T/C [8]: 112%; viability, T/C [9]: 115%; viability, T/C [10]: 114%; viability, T/C [11]: 116%; viability, T/C [12]: 107%; viability, T/C [13]: 117%; viability, T/C [14]: 114%; viability, T/C [15]: 115%; viability, T/C [16]: 116%; viability, T/C [17]: 119%; viability, T/C [18]: 114%; viability, T/C [19]: 121%; viability, T/C [20]: 119%; viability, T/C [21]: 116%; viability, T/C [22]: 117%; viability, T/C [23]: 121%; viability, T/C [24]: 99%; viability, T/C [25]: 108%; viability, T/C [26]: 107%; viability, T/C [27]: 105%; viability, T/C [28]: 111%; viability, T/C [29]: 111%; viability, T/C [30]: 101%; viability, T/C [31]: 105%; viability, T/C [32]: 100%; viability, T/C [33]: 101%; viability, T/C [34]: 103%; viability, T/C [35]: 104%

**Q.** Which results are given for `O=C(C=Cc1cccc(S(=O)(=O)Nc2ccccc2)c1)NO` + Cc1ccccc1N=Nc1ccc(NC(=O)c2ccnn2C)c(C)c1?
**A.** IC50 [1]: 1.1 µM; IC50 [2]: 1.08 µM; IC50 [3]: 1.18 µM; IC50 [4]: 1.03 µM; IC50 [5]: 1.06 µM; viability, T/C [6]: 100%; viability, T/C [7]: 89.7%; viability, T/C [8]: 76.1%; viability, T/C [9]: 53%; viability, T/C [10]: 24.8%; viability, T/C [11]: 5.54%; viability, T/C [12]: 101%; viability, T/C [13]: 97.2%; viability, T/C [14]: 77.2%; viability, T/C [15]: 54.2%; viability, T/C [16]: 21.3%; viability, T/C [17]: 5.42%; viability, T/C [18]: 103%; viability, T/C [19]: 97.4%; viability, T/C [20]: 84.8%; viability, T/C [21]: 54.1%; viability, T/C [22]: 22.6%; viability, T/C [23]: 5.11%; viability, T/C [24]: 103%; viability, T/C [25]: 99.3%; viability, T/C [26]: 81%; viability, T/C [27]: 50.2%; viability, T/C [28]: 21.6%; viability, T/C [29]: 5.09%; viability, T/C [30]: 93.4%; viability, T/C [31]: 96.2%; viability, T/C [32]: 76.2%; viability, T/C [33]: 52%; viability, T/C [34]: 22.3%; viability, T/C [35]: 5.86%

**Q.** For `Nc1ccn(C2OC(CO)C(O)C2(F)F)c(=O)n1` (stereo not drawn) + CC(CO)NC(=O)c1cc(-c2ccc(Cl)cc2)nn(-c2cnn(C)c2)c1=O, which IC50 [1] is on record?
**A.** < 0.0316 µM

**Q.** What about the IC50 [2] of the same compound?
**A.** < 0.0316 µM

**Q.** What about the IC50 [3] of the same compound?
**A.** < 0.0316 µM

**Q.** And the IC50 [4]?
**A.** < 0.0316 µM

**Q.** And the IC50 [5]?
**A.** < 0.0316 µM

**Q.** What about the viability, T/C [6] of the same compound?
**A.** 34.6%

**Q.** What about the viability, T/C [7] of the same compound?
**A.** 32.1%

**Q.** And the viability, T/C [8]?
**A.** 28.1%

**Q.** What about the viability, T/C [9] of the same compound?
**A.** 29.9%

**Q.** What about the viability, T/C [10] of the same compound?
**A.** 30.9%

**Q.** What about the viability, T/C [11] of the same compound?
**A.** 29.4%

**Q.** And the viability, T/C [12]?
**A.** 32.9%

**Q.** What about the viability, T/C [13] of the same compound?
**A.** 29.8%

**Q.** And the viability, T/C [14]?
**A.** 28.9%

**Q.** And the viability, T/C [15]?
**A.** 28.5%

**Q.** And the viability, T/C [16]?
**A.** 31.5%

**Q.** What about the viability, T/C [17] of the same compound?
**A.** 30.2%

**Q.** And the viability, T/C [18]?
**A.** 36.1%

**Q.** And the viability, T/C [19]?
**A.** 32.4%

**Q.** What about the viability, T/C [20] of the same compound?
**A.** 29.6%

**Q.** What about the viability, T/C [21] of the same compound?
**A.** 30.4%

**Q.** And the viability, T/C [22]?
**A.** 31.3%

**Q.** And the viability, T/C [23]?
**A.** 30.1%

**Q.** What about the viability, T/C [24] of the same compound?
**A.** 37%

**Q.** And the viability, T/C [25]?
**A.** 32.3%

**Q.** What about the viability, T/C [26] of the same compound?
**A.** 29.6%

**Q.** What about the viability, T/C [27] of the same compound?
**A.** 28.9%

**Q.** What about the viability, T/C [28] of the same compound?
**A.** 28.7%

**Q.** And the viability, T/C [29]?
**A.** 29.6%

**Q.** And the viability, T/C [30]?
**A.** 39.6%

**Q.** And the viability, T/C [31]?
**A.** 33.9%

**Q.** And the viability, T/C [32]?
**A.** 30.9%

**Q.** And the viability, T/C [33]?
**A.** 31.2%

**Q.** What about the viability, T/C [34] of the same compound?
**A.** 32.8%

**Q.** And the viability, T/C [35]?
**A.** 33.8%

**Q.** What does the source list for `Cc1ccccc1N=Nc1ccc(NC(=O)c2ccnn2C)c(C)c1`?
**A.** viability, T/C (compound 0.1 µM): 103% [middle of 20 runs]; viability, T/C (compound 0.316 µM): 108% [middle of 20 runs]; viability, T/C (compound 1 µM): 110% [middle of 20 runs]; viability, T/C (compound 3.16 µM): 113% [middle of 20 runs]; viability, T/C (compound 10 µM): 105% [middle of 20 runs]; IC50 (compound alone, run of 08/22/2022): > 10 µM

**Q.** Which viability, T/C (compound 0.0316 µM) does the source give for `CC1COCCN1c1cc(C2(S(C)(=N)=O)CC2)nc(-c2ccnc3[nH]ccc23)n1` (stereo not drawn) here?
**A.** 101% and 102% and 99.5%

**Q.** And the viability, T/C (compound 0.1 µM)?
**A.** 101% (2×) and 99.1%

**Q.** And the viability, T/C (compound 0.316 µM)?
**A.** 104% and 102% and 96.8%

**Q.** And the viability, T/C (compound 1 µM)?
**A.** 100% and 97.1% and 98%

**Q.** And the viability, T/C (compound 3.16 µM)?
**A.** 89.4% and 71.8% and 75.2%

**Q.** What about the viability, T/C (compound 10 µM) of the same compound?
**A.** 46.7% and 37% and 41%

**Q.** And the IC50 (curve of compound)?
**A.** 9.16 µM and 6.5 µM and 7.4 µM
